Reference: patent US6001812A, “Modulating body/cranial hair growth with derivatives of the α-type melanocyte-stimulating hormone” (Societe L'Oreal S.A., priority 1995, dated 1999)
Where a SMILES comes first, the peptide text is derived from it.

System: hair follicles
Test: Lengthening and survival of hair follicles maintained in vitro
Format: cell-based
Set-up: Mean lengthening: unit not given here
Protocol: Viable in vitro hair follicles were prepared according to the technique described in French Patent Application No. 95-08465, filed Jul. 12, 1995 and assigned to the assignee hereof.
From a scalp biopsy, a rather fine strip of scalp was isolated using a scalpel. The adipose tissue surrounding the follicles was removed with microforceps while avoiding damage to the hair bulb. The follicles were cut out with a scalpel under a microscope in order to separate them from their epidermal and dermal surroundings.
The follicles were then cultured in the wells of Costar-type 24-well plates, at the rate of one follicle per well. Each well contained 0.5 ml of Williams' medium E, to which had been added penicillin and streptomycin to a final concentration of 50 IU/ml, glutamine to 2 mM, bovine insulin to 0.01 mg/ml and hydrocortisone to 0.04 mg/ml.
The follicles were then measured using a microscope equipped with a micrometric eyepiece.
After 24 hours, the follicles were again measured and those which had lengthened by less than 0.3 divisions of the micrometer, corresponding to 0.16 mm, were discarded.
The five (5) following culturing conditions were tested:
Condition A: Complete Williams' medium E, without peptide.
Condition B: Complete Williams' medium E+10 mM Ac-LPV-NH2.
Condition C: Complete Williams' medium E+1 mM Ac-LPV-NH2.
Condition D: Complete Williams' medium E+0.1 mM Ac-LPV-NH2.

[1] = 0.1 mM peptide in complete Williams' medium E, day 0
[2] = 0.1 mM peptide in complete Williams' medium E, day 1
[3] = 0.1 mM peptide in complete Williams' medium E, day 4
[4] = 1 mM peptide in complete Williams' medium E, day 0
[5] = 1 mM peptide in complete Williams' medium E, day 1
[6] = 1 mM peptide in complete Williams' medium E, day 11
[7] = 10 mM peptide in complete Williams' medium E, day 0
[8] = 10 mM peptide in complete Williams' medium E, day 1
[9] = 10 mM peptide in complete Williams' medium E, day 12
[10] = summary of Example 1, versus medium without peptide

CC(=O)N[C@@H](CCCCN)C(=O)N1CCC[C@H]1C(=O)N[C@H](C(N)=O)C(C)C [Acetyl-Lys-Pro-Val-NH2] (Ac-Lys-Pro-Val-NH2)
% Survival [1]: 100%
Mean lengthening [1]: 0.00
% Survival [2]: 100%
Mean lengthening [2]: 0.37
% Survival [3]: 100%
Mean lengthening [3]: 1.10
% Survival (0.1 mM peptide in complete Williams' medium E, day 5): 100%
% Survival (0.1 mM peptide in complete Williams' medium E, day 6): 100%
% Survival (0.1 mM peptide in complete Williams' medium E, day 7): 83%
% Survival (0.1 mM peptide in complete Williams' medium E, day 8): 50%
% Survival (0.1 mM peptide in complete Williams' medium E, day 11): 42%
% Survival (0.1 mM peptide in complete Williams' medium E, day 12): 17%
% Survival [4]: 100%
Mean lengthening [4]: 0.00
% Survival [5]: 100%
Mean lengthening [5]: 0.38
% Survival (1 mM peptide in complete Williams' medium E, day 4): 100%
% Survival (1 mM peptide in complete Williams' medium E, day 5): 100%
% Survival (1 mM peptide in complete Williams' medium E, day 6): 100%
% Survival (1 mM peptide in complete Williams' medium E, day 7): 91%
% Survival (1 mM peptide in complete Williams' medium E, day 8): 55%
% Survival [6]: 36%
Mean lengthening [6]: 1.70
% Survival [7]: 100%
Mean lengthening [7]: 0.00
% Survival [8]: 100%
Mean lengthening [8]: 0.38
% Survival (10 mM peptide in complete Williams' medium E, day 4): 100%
% Survival (10 mM peptide in complete Williams' medium E, day 5): 100%
% Survival (10 mM peptide in complete Williams' medium E, day 6): 100%
% Survival (10 mM peptide in complete Williams' medium E, day 7): 100%
% Survival (10 mM peptide in complete Williams' medium E, day 8): 92%
% Survival (10 mM peptide in complete Williams' medium E, day 11): 83%
% Survival [9]: 42%
Mean lengthening [9]: 2.40
Effect on lengthening of the cultured hair follicles (in words) [10]: promoted the lengthening
Effect on survival time of the cultured hair follicles (in words) [10]: increased their survival time
